Data published in PubChem BioAssay AID2060624 (Molecular Pharmacology Branch, DTP, NCI, 2025).
pIC50: −log10 of the molar value.

System: 217524-143-R1-J4-PDC spheroids with HUVEC/MSC, viability
Test: Anticancer human tumor 217524-143-R1-J4-PDC patient-derived pancreatic carcinoma cell line growth inhibition [CLK]
Settings: for pIC50: curve of first compound; for viability, T/C: stronger effect = lower value
Outline: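 Multi-cell-type spheroids combined patient-derived tumor cells with HUVEC endothelial cells and human mesenchymal stem cells. Paired agents were dosed in half-log steps down from about clinical Cmax, or from 10 microM where Cmax was unknown.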

[1] = second compound 0.0316 µM, first compound 0.0316 µM
[2] = second compound 0.0316 µM, first compound 0.1 µM
[3] = second compound 0.0316 µM, first compound 0.316 µM
[4] = second compound 0.0316 µM, first compound 1 µM
[5] = second compound 0.0316 µM, first compound 3.16 µM
[6] = second compound 0.0316 µM, first compound 10 µM
[7] = second compound 0.1 µM, first compound 0.0316 µM
[8] = second compound 0.1 µM, first compound 0.1 µM
[9] = second compound 0.1 µM, first compound 0.316 µM
[10] = second compound 0.1 µM, first compound 1 µM
[11] = second compound 0.1 µM, first compound 3.16 µM
[12] = second compound 0.1 µM, first compound 10 µM
[13] = second compound 0.316 µM, first compound 0.0316 µM
[14] = second compound 0.316 µM, first compound 0.1 µM
[15] = second compound 0.316 µM, first compound 0.316 µM
[16] = second compound 0.316 µM, first compound 1 µM
[17] = second compound 0.316 µM, first compound 3.16 µM
[18] = second compound 0.316 µM, first compound 10 µM
[19] = second compound 1 µM, first compound 0.0316 µM
[20] = second compound 1 µM, first compound 0.1 µM
[21] = second compound 1 µM, first compound 0.316 µM
[22] = second compound 1 µM, first compound 1 µM
[23] = second compound 1 µM, first compound 3.16 µM
[24] = second compound 1 µM, first compound 10 µM
[25] = second compound 3.16 µM, first compound 0.0316 µM
[26] = second compound 3.16 µM, first compound 0.1 µM
[27] = second compound 3.16 µM, first compound 0.316 µM
[28] = second compound 3.16 µM, first compound 1 µM
[29] = second compound 3.16 µM, first compound 3.16 µM
[30] = second compound 3.16 µM, first compound 10 µM
[31] = second compound 10 µM, first compound 0.0316 µM
[32] = second compound 10 µM, first compound 0.1 µM
[33] = second compound 10 µM, first compound 0.316 µM
[34] = second compound 10 µM, first compound 1 µM
[35] = second compound 10 µM, first compound 3.16 µM
[36] = second compound 10 µM, first compound 10 µM
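Also: spheroids exposed to agents for seven days before reading.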
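For viability, T/C in this document: 100% = DMSO vehicle control viability.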

Structure (SMILES): COc1ccc([C@@H](O)c2cc(-c3ncnc4cc(N5CCOCC5)ccc34)c(F)cc2Cl)nn1 + CNC(=O)c1ccc(Nc2nc(OC3CCCC3)c3c(-c4ccc5nc(C)oc5c4)c[nH]c3n2)c(OC)c1
- pIC50 (second compound 0.0316 µM): 6.09
- pIC50 (second compound 0.1 µM): > 7.50
- pIC50 (second compound 0.316 µM): > 7.50
- pIC50 (second compound 1 µM): > 7.50
- pIC50 (second compound 3.16 µM): > 7.50
- pIC50 (second compound 10 µM): > 7.50
- viability, T/C [1]: 95.4%
- viability, T/C [2]: 72%
- viability, T/C [3]: 66%
- viability, T/C [4]: 50.4%
- viability, T/C [5]: 27.6%
- viability, T/C [6]: 10.6%
- viability, T/C [7]: 43.1%
- viability, T/C [8]: 34.6%
- viability, T/C [9]: 32%
- viability, T/C [10]: 27.9%
- viability, T/C [11]: 19.3%
- viability, T/C [12]: 9.43%
- viability, T/C [13]: 39.8%
- viability, T/C [14]: 28.4%
- viability, T/C [15]: 27.4%
- viability, T/C [16]: 20.8%
- viability, T/C [17]: 13.3%
- viability, T/C [18]: 7.35%
- viability, T/C [19]: 32%
- viability, T/C [20]: 22.9%
- viability, T/C [21]: 23.3%
- viability, T/C [22]: 13.6%
- viability, T/C [23]: 11.8%
- viability, T/C [24]: 5.29%
- viability, T/C [25]: 25.6%
- viability, T/C [26]: 27%
- viability, T/C [27]: 20.2%
- viability, T/C [28]: 16.9%
- viability, T/C [29]: 10.3%
- viability, T/C [30]: 4.64%
- viability, T/C [31]: 24.8%
- viability, T/C [32]: 23.6%
- viability, T/C [33]: 20.7%
- viability, T/C [34]: 13.8%
- viability, T/C [35]: 9.68%
- viability, T/C [36]: 5.01%

Structure (SMILES): COc1cccc2c1C(=O)c1c(O)c3c(c(O)c1C2=O)CC(O)(C(=O)CO)CC3OC1CC(N)C(O)C(C)O1 (centres undefined) + CNC(=O)c1ccc(Nc2nc(OC3CCCC3)c3c(-c4ccc5nc(C)oc5c4)c[nH]c3n2)c(OC)c1
- pIC50 (second compound 0.0316 µM): > 7.50
- pIC50 (second compound 0.1 µM): > 7.50
- pIC50 (second compound 0.316 µM): > 7.50
- pIC50 (second compound 1 µM): > 7.50
- pIC50 (second compound 3.16 µM): > 7.50
- pIC50 (second compound 10 µM): > 7.50
- viability, T/C [1]: 32.9%
- viability, T/C [2]: 32.3%
- viability, T/C [3]: 25.3%
- viability, T/C [4]: 17.2%
- viability, T/C [5]: 3.45%
- viability, T/C [6]: 0.92%
- viability, T/C [7]: 38.2%
- viability, T/C [8]: 33.7%
- viability, T/C [9]: 23%
- viability, T/C [10]: 18.9%
- viability, T/C [11]: 2.48%
- viability, T/C [12]: 1.28%
- viability, T/C [13]: 32.2%
- viability, T/C [14]: 28.5%
- viability, T/C [15]: 16.5%
- viability, T/C [16]: 12.8%
- viability, T/C [17]: 2.83%
- viability, T/C [18]: 0.97%
- viability, T/C [19]: 25.2%
- viability, T/C [20]: 18.7%
- viability, T/C [21]: 11.8%
- viability, T/C [22]: 7.57%
- viability, T/C [23]: 1.43%
- viability, T/C [24]: 0.99%
- viability, T/C [25]: 18.7%
- viability, T/C [26]: 16%
- viability, T/C [27]: 13%
- viability, T/C [28]: 6.9%
- viability, T/C [29]: 0.62%
- viability, T/C [30]: 1.17%
- viability, T/C [31]: 22.2%
- viability, T/C [32]: 14.7%
- viability, T/C [33]: 10.7%
- viability, T/C [34]: 6.9%
- viability, T/C [35]: 0.98%
- viability, T/C [36]: 1.5%
